# Source: PubChem BioAssay (NCI)
#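 Exposure lasted 48 hours, with cells grown in 96-well plates and compounds tested at five concentrations. At the GI50, growth is halved. At the TGI there is no net growth.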
# Columns and labels:
# Assay in all cases: growth of human tumour cells (NCI), 48 h
# SN12C renal = test system: SN12C renal
# IGROV1 ovarian = test system: IGROV1 ovarian
# NCI-H226 lung = test system: NCI-H226 lung
# MOLT-4 leukemia = test system: MOLT-4 leukemia
# T-47D breast = test system: T-47D breast
# DU-145 prostate = test system: DU-145 prostate
# HCT-15 colon = test system: HCT-15 colon
# SF-268 CNS = test system: SF-268 CNS
# OVCAR-3 ovarian = test system: OVCAR-3 ovarian
# HT29 colon = test system: HT29 colon
# SR leukemia = test system: SR leukemia
# MDA-MB-468 breast = test system: MDA-MB-468 breast
# K-562 leukemia = test system: K-562 leukemia
# UO-31 renal = test system: UO-31 renal
# SK-MEL-28 melanoma = test system: SK-MEL-28 melanoma
# NCI-H460 lung = test system: NCI-H460 lung
# A549 NSCLC = test system: A549 NSCLC
# HCC-2998 colon = test system: HCC-2998 colon
# MALME-3M melanoma = test system: MALME-3M melanoma
# MCF7 breast = test system: MCF7 breast
# LOX IMVI melanoma = test system: LOX IMVI melanoma
# RXF 393 renal = test system: RXF 393 renal
# ACHN renal = test system: ACHN renal
# OVCAR-4 ovarian = test system: OVCAR-4 ovarian
# RPMI-8226 leukemia = test system: RPMI-8226 leukemia
# UACC-62 melanoma = test system: UACC-62 melanoma
# HS 578T breast = test system: HS 578T breast
# SK-MEL-5 melanoma = test system: SK-MEL-5 melanoma
# SW-620 colon = test system: SW-620 colon
# SK-MEL-2 melanoma = test system: SK-MEL-2 melanoma
# A498 renal = test system: A498 renal
# SNB-75 CNS = test system: SNB-75 CNS
# U251 CNS = test system: U251 CNS
# HL-60(TB) leukemia = test system: HL-60(TB) leukemia
# MDA-MB-435 = test system: MDA-MB-435
# CCRF-CEM leukemia = test system: CCRF-CEM leukemia
# NCI-H522 lung = test system: NCI-H522 lung
# OVCAR-5 ovarian = test system: OVCAR-5 ovarian
# NCI/ADR-RES ovarian = test system: NCI/ADR-RES ovarian
# 786-0 renal = test system: 786-0 renal
# NCI-H23 lung = test system: NCI-H23 lung
# UACC-257 melanoma = test system: UACC-257 melanoma
# M14 melanoma = test system: M14 melanoma
# SF-295 CNS = test system: SF-295 CNS
# TK-10 renal = test system: TK-10 renal
# PC-3 prostate = test system: PC-3 prostate
# COLO 205 colon = test system: COLO 205 colon
# EKVX NSCLC = test system: EKVX NSCLC
# SNB-19 CNS = test system: SNB-19 CNS
# HCT-116 colon = test system: HCT-116 colon
# SF-539 CNS = test system: SF-539 CNS
# CAKI-1 renal = test system: CAKI-1 renal
# HOP-62 NSCLC = test system: HOP-62 NSCLC
# MDA-MB-231 breast = test system: MDA-MB-231 breast
# BT-549 breast = test system: BT-549 breast
# SK-OV-3 ovarian = test system: SK-OV-3 ovarian
# HOP-92 NSCLC = test system: HOP-92 NSCLC
# KM12 colon = test system: KM12 colon
# OVCAR-8 ovarian = test system: OVCAR-8 ovarian
compound,measurement,setting,value
O=C(NO)c1ccc(Cn2ccc3c(Nc4ccccc4)ncnc32)cc1,GI50,SN12C renal,3.29 µM
same,TGI,SN12C renal,7.05 µM
same,GI50,IGROV1 ovarian,2.34 µM
same,TGI,IGROV1 ovarian,6.22 µM
same,GI50,NCI-H226 lung,3.88 µM
same,TGI,NCI-H226 lung,16 µM
same,GI50,MOLT-4 leukemia,0.93 µM
same,TGI,MOLT-4 leukemia,7.6 µM
same,GI50,T-47D breast,2.42 µM
same,TGI,T-47D breast,> 29 µM
same,GI50,DU-145 prostate,1.41 µM
same,TGI,DU-145 prostate,> 29 µM
same,GI50,HCT-15 colon,3.59 µM
same,TGI,HCT-15 colon,7.81 µM
same,GI50,SF-268 CNS,4.06 µM
same,TGI,SF-268 CNS,9.64 µM
same,GI50,OVCAR-3 ovarian,3.06 µM
same,TGI,OVCAR-3 ovarian,12.1 µM
same,GI50,HT29 colon,1.43 µM
same,TGI,HT29 colon,14.1 µM
same,GI50,SR leukemia,0.817 µM
same,TGI,SR leukemia,> 29 µM
same,GI50,MDA-MB-468 breast,0.718 µM
same,TGI,MDA-MB-468 breast,2.76 µM
same,GI50,K-562 leukemia,1.14 µM
same,TGI,K-562 leukemia,> 29 µM
same,GI50,UO-31 renal,2.42 µM
same,TGI,UO-31 renal,6.38 µM
same,GI50,SK-MEL-28 melanoma,2.04 µM
same,TGI,SK-MEL-28 melanoma,6.29 µM
same,GI50,NCI-H460 lung,1.33 µM
same,TGI,NCI-H460 lung,8.45 µM
same,GI50,A549 NSCLC,3.1 µM
same,TGI,A549 NSCLC,15.5 µM
same,GI50,HCC-2998 colon,2.62 µM
same,TGI,HCC-2998 colon,6.12 µM
same,GI50,MALME-3M melanoma,0.869 µM
same,TGI,MALME-3M melanoma,4.1 µM
same,GI50,MCF7 breast,3.8 µM
same,TGI,MCF7 breast,12.4 µM
same,GI50,LOX IMVI melanoma,1.78 µM
same,TGI,LOX IMVI melanoma,5.44 µM
same,GI50,RXF 393 renal,0.934 µM
same,TGI,RXF 393 renal,4.02 µM
same,GI50,ACHN renal,1.95 µM
same,TGI,ACHN renal,5.92 µM
same,GI50,OVCAR-4 ovarian,5.79 µM
same,TGI,OVCAR-4 ovarian,> 29 µM
same,GI50,RPMI-8226 leukemia,1.1 µM
same,TGI,RPMI-8226 leukemia,> 29 µM
same,GI50,UACC-62 melanoma,1.04 µM
same,TGI,UACC-62 melanoma,4.42 µM
same,GI50,HS 578T breast,1.7 µM
same,TGI,HS 578T breast,17.5 µM
same,GI50,SK-MEL-5 melanoma,1.06 µM
same,TGI,SK-MEL-5 melanoma,4.05 µM
same,GI50,SW-620 colon,0.863 µM
same,TGI,SW-620 colon,3.31 µM
same,GI50,SK-MEL-2 melanoma,4.75 µM
same,TGI,SK-MEL-2 melanoma,11.4 µM
same,GI50,A498 renal,1.31 µM
same,TGI,A498 renal,6.79 µM
same,GI50,SNB-75 CNS,1.04 µM
same,TGI,SNB-75 CNS,6.11 µM
same,GI50,U251 CNS,2.78 µM
same,TGI,U251 CNS,15.8 µM
same,GI50,HL-60(TB) leukemia,0.984 µM
same,TGI,HL-60(TB) leukemia,3.89 µM
same,GI50,MDA-MB-435,1.22 µM
same,TGI,MDA-MB-435,5.03 µM
same,GI50,CCRF-CEM leukemia,1.41 µM
same,TGI,CCRF-CEM leukemia,> 29 µM
same,GI50,NCI-H522 lung,1.07 µM
same,TGI,NCI-H522 lung,4.87 µM
same,GI50,OVCAR-5 ovarian,1.02 µM
same,TGI,OVCAR-5 ovarian,5.07 µM
same,GI50,NCI/ADR-RES ovarian,0.636 µM
same,TGI,NCI/ADR-RES ovarian,2.03 µM
same,GI50,786-0 renal,3.78 µM
same,TGI,786-0 renal,8.97 µM
same,GI50,NCI-H23 lung,1.47 µM
same,TGI,NCI-H23 lung,5.08 µM
same,GI50,UACC-257 melanoma,2.3 µM
same,TGI,UACC-257 melanoma,9.79 µM
same,GI50,M14 melanoma,2.99 µM
same,TGI,M14 melanoma,10.1 µM
same,GI50,SF-295 CNS,1.73 µM
same,TGI,SF-295 CNS,5.74 µM
same,GI50,TK-10 renal,1.42 µM
same,TGI,TK-10 renal,12 µM
same,GI50,PC-3 prostate,2.82 µM
same,TGI,PC-3 prostate,21.5 µM
same,GI50,COLO 205 colon,1.43 µM
same,TGI,COLO 205 colon,5.73 µM
same,GI50,EKVX NSCLC,2.75 µM
same,TGI,EKVX NSCLC,6.9 µM
same,GI50,SNB-19 CNS,3.26 µM
same,TGI,SNB-19 CNS,7.51 µM
same,GI50,HCT-116 colon,0.993 µM
same,TGI,HCT-116 colon,5.6 µM
same,GI50,SF-539 CNS,2.55 µM
same,TGI,SF-539 CNS,6.77 µM
same,GI50,CAKI-1 renal,2.17 µM
same,TGI,CAKI-1 renal,6.91 µM
same,GI50,HOP-62 NSCLC,2.2 µM
same,TGI,HOP-62 NSCLC,7.63 µM
same,GI50,MDA-MB-231 breast,1.94 µM
same,TGI,MDA-MB-231 breast,6.68 µM
same,GI50,BT-549 breast,7.71 µM
same,TGI,BT-549 breast,15.4 µM
same,GI50,SK-OV-3 ovarian,2 µM
same,TGI,SK-OV-3 ovarian,9.87 µM
same,GI50,HOP-92 NSCLC,1.74 µM
same,TGI,HOP-92 NSCLC,7.35 µM
same,GI50,KM12 colon,3.7 µM
same,TGI,KM12 colon,10.9 µM
same,GI50,OVCAR-8 ovarian,1.29 µM
same,TGI,OVCAR-8 ovarian,8.8 µM
